Tested on: 966289-007-R4-J1-PDC complex spheroid viability
Experiment: Anticancer human tumor 966289-007-R4-J1-PDC patient-derived pancreatic adenocarcinoma cell line growth inhibition [GQUAD]
Conditions: for IC50: curve of first compound; for viability, T/C: stronger effect = lower value
Outline: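 Multi-cell-type spheroids of tumor cells with HUVEC and mesenchymal stem cells, treated with drug combinations. Concentrations descend in half-log steps from near clinical Cmax, or from 10 microM where Cmax is unknown; viability read-out.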

[1] = second compound 0.0316 µM, first compound 0.0316 µM
[2] = second compound 0.0316 µM, first compound 0.1 µM
[3] = second compound 0.0316 µM, first compound 0.316 µM
[4] = second compound 0.0316 µM, first compound 1 µM
[5] = second compound 0.0316 µM, first compound 3.16 µM
[6] = second compound 0.0316 µM, first compound 10 µM
[7] = second compound 0.1 µM, first compound 0.0316 µM
[8] = second compound 0.1 µM, first compound 0.1 µM
[9] = second compound 0.1 µM, first compound 0.316 µM
[10] = second compound 0.1 µM, first compound 1 µM
[11] = second compound 0.1 µM, first compound 3.16 µM
[12] = second compound 0.1 µM, first compound 10 µM
[13] = second compound 0.316 µM, first compound 0.0316 µM
[14] = second compound 0.316 µM, first compound 0.1 µM
[15] = second compound 0.316 µM, first compound 0.316 µM
[16] = second compound 0.316 µM, first compound 1 µM
[17] = second compound 0.316 µM, first compound 3.16 µM
[18] = second compound 0.316 µM, first compound 10 µM
[19] = second compound 1 µM, first compound 0.0316 µM
[20] = second compound 1 µM, first compound 0.1 µM
[21] = second compound 1 µM, first compound 0.316 µM
[22] = second compound 1 µM, first compound 1 µM
[23] = second compound 1 µM, first compound 3.16 µM
[24] = second compound 1 µM, first compound 10 µM
[25] = second compound 3.16 µM, first compound 0.0316 µM
[26] = second compound 3.16 µM, first compound 0.1 µM
[27] = second compound 3.16 µM, first compound 0.316 µM
[28] = second compound 3.16 µM, first compound 1 µM
[29] = second compound 3.16 µM, first compound 3.16 µM
[30] = second compound 3.16 µM, first compound 10 µM
[31] = second compound 10 µM, first compound 0.0316 µM
[32] = second compound 10 µM, first compound 0.1 µM
[33] = second compound 10 µM, first compound 0.316 µM
[34] = second compound 10 µM, first compound 1 µM
[35] = second compound 10 µM, first compound 3.16 µM
[36] = second compound 10 µM, first compound 10 µM
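Further: spheroids exposed to the agents for seven days before readout.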
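Wherever viability, T/C is given: percent viability relative to DMSO vehicle control wells taken as 100%.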

`COc1ncnc(C2CC2)c1-c1ncc2cnn(Cc3ccc(-c4nc(C(F)(F)F)cn4C(C)C)cc3)c2n1` + Cc1[nH]c2ccc(F)cc2c1-c1nc2c3cccnc3c3ncccc3c2[nH]1 was tested, and the IC50 (second compound 0.0316 µM) was > 10000 nM, the IC50 (second compound 0.1 µM) was > 10000 nM and the IC50 (second compound 0.316 µM) was > 10000 nM. The IC50 (second compound 1 µM) was > 10000 nM, the IC50 (second compound 3.16 µM) was > 10000 nM and the IC50 (second compound 10 µM) was > 10000 nM. For the same compound, the viability, T/C [1] was 106%, the viability, T/C [2] was 99.2% and the viability, T/C [3] was 104%. It also gave a viability, T/C [4] of 99.7%, a viability, T/C [5] of 104% and a viability, T/C [6] of 107%. The viability, T/C [7] was 106%, the viability, T/C [8] was 105% and the viability, T/C [9] was 104%. For the same compound, the viability, T/C [10] was 99.6%, the viability, T/C [11] was 100% and the viability, T/C [12] was 107%. The viability, T/C [13] was 101%, the viability, T/C [14] was 99.8% and the viability, T/C [15] was 107%. The viability, T/C [16] was 100%, the viability, T/C [17] was 102% and the viability, T/C [18] was 96.5%. The viability, T/C [19] was 98.2%, the viability, T/C [20] was 105% and the viability, T/C [21] was 107%. It also gave a viability, T/C [22] of 104%, a viability, T/C [23] of 108% and a viability, T/C [24] of 110%. For the same compound, the viability, T/C [25] was 107%, the viability, T/C [26] was 106% and the viability, T/C [27] was 108%. The viability, T/C [28] was 108%, the viability, T/C [29] was 109% and the viability, T/C [30] was 110%. The viability, T/C [31] was 107%, the viability, T/C [32] was 104% and the viability, T/C [33] was 109%. It also gave a viability, T/C [34] of 104%, a viability, T/C [35] of 111% and a viability, T/C [36] of 111%.
Work on `Cc1[nH]c2ccccc2c1CCNCc1ccc(/C=C/C(=O)NO)cc1` + Cc1[nH]c2ccc(F)cc2c1-c1nc2c3cccnc3c3ncccc3c2[nH]1 yielded an IC50 (second compound 0.0316 µM) of 76 nM, an IC50 (second compound 0.1 µM) of 92.8 nM and an IC50 (second compound 0.316 µM) of 95.8 nM. The IC50 (second compound 1 µM) was 127 nM, the IC50 (second compound 3.16 µM) was 79.7 nM and the IC50 (second compound 10 µM) was 104 nM. It also gave a viability, T/C (second compound 0.0316 µM, first compound 0.000999 µM) of 110%, a viability, T/C (second compound 0.0316 µM, first compound 0.00316 µM) of 104% and a viability, T/C (second compound 0.0316 µM, first compound 0.00999 µM) of 107%. It also gave a viability, T/C [1] of 103%, a viability, T/C (second compound 0.0316 µM, first compound 0.0999 µM) of 33.6% and a viability, T/C [3] of 4.95%. It also gave a viability, T/C (second compound 0.1 µM, first compound 0.000999 µM) of 111%, a viability, T/C (second compound 0.1 µM, first compound 0.00316 µM) of 109% and a viability, T/C (second compound 0.1 µM, first compound 0.00999 µM) of 111%. The viability, T/C [7] was 105%, the viability, T/C (second compound 0.1 µM, first compound 0.0999 µM) was 46.2% and the viability, T/C [9] was 5.29%. The viability, T/C (second compound 0.316 µM, first compound 0.000999 µM) was 106%, the viability, T/C (second compound 0.316 µM, first compound 0.00316 µM) was 108% and the viability, T/C (second compound 0.316 µM, first compound 0.00999 µM) was 113%. For the same compound, the viability, T/C [13] was 107%, the viability, T/C (second compound 0.316 µM, first compound 0.0999 µM) was 47.8% and the viability, T/C [15] was 6.15%. It also gave a viability, T/C (second compound 1 µM, first compound 0.000999 µM) of 98.5%, a viability, T/C (second compound 1 µM, first compound 0.00316 µM) of 103% and a viability, T/C (second compound 1 µM, first compound 0.00999 µM) of 111%. The viability, T/C [19] was 108%, the viability, T/C (second compound 1 µM, first compound 0.0999 µM) was 61.5% and the viability, T/C [21] was 5.78%. The viability, T/C (second compound 3.16 µM, first compound 0.000999 µM) was 107%, the viability, T/C (second compound 3.16 µM, first compound 0.00316 µM) was 114% and the viability, T/C (second compound 3.16 µM, first compound 0.00999 µM) was 117%. The viability, T/C [25] was 110%, the viability, T/C (second compound 3.16 µM, first compound 0.0999 µM) was 35.4% and the viability, T/C [27] was 5.51%. The viability, T/C (second compound 10 µM, first compound 0.000999 µM) was 110%, the viability, T/C (second compound 10 µM, first compound 0.00316 µM) was 104% and the viability, T/C (second compound 10 µM, first compound 0.00999 µM) was 114%. It also gave a viability, T/C [31] of 93.5%, a viability, T/C (second compound 10 µM, first compound 0.0999 µM) of 52.2% and a viability, T/C [33] of 5.13%.
For `Nc1ccn(C2OC(CO)C(O)C2(F)F)c(=O)n1` (stereo not drawn) + Cc1[nH]c2ccc(F)cc2c1-c1nc2c3cccnc3c3ncccc3c2[nH]1, the IC50 (second compound 0.0316 µM) was < 31.6 nM, the IC50 (second compound 0.1 µM) was < 31.6 nM and the IC50 (second compound 0.316 µM) was < 31.6 nM. For the same compound, the IC50 (second compound 1 µM) was < 31.6 nM, the IC50 (second compound 3.16 µM) was < 31.6 nM and the IC50 (second compound 10 µM) was < 31.6 nM. It also gave a viability, T/C [1] of 7.33%, a viability, T/C [2] of 1.13% and a viability, T/C [3] of 0.84%. For the same compound, the viability, T/C [4] was 0.84%, the viability, T/C [5] was 1.15% and the viability, T/C [6] was 0.76%. For the same compound, the viability, T/C [7] was 7.75%, the viability, T/C [8] was 1% and the viability, T/C [9] was 1.28%. For the same compound, the viability, T/C [10] was 1.1%, the viability, T/C [11] was 0.83% and the viability, T/C [12] was 0.76%. It also gave a viability, T/C [13] of 5.74%, a viability, T/C [14] of 1.09% and a viability, T/C [15] of 1.33%. It also gave a viability, T/C [16] of 0.83%, a viability, T/C [17] of 0.67% and a viability, T/C [18] of 0.86%. The viability, T/C [19] was 7.53%, the viability, T/C [20] was 0.98% and the viability, T/C [21] was 1.01%. The viability, T/C [22] was 0.85%, the viability, T/C [23] was 0.92% and the viability, T/C [24] was 0.83%. The viability, T/C [25] was 4.68%, the viability, T/C [26] was 1.2% and the viability, T/C [27] was 1.1%. It also gave a viability, T/C [28] of 0.82%, a viability, T/C [29] of 1.7% and a viability, T/C [30] of 0.93%. For the same compound, the viability, T/C [31] was 2.75%, the viability, T/C [32] was 1.07% and the viability, T/C [33] was 0.98%. It also gave a viability, T/C [34] of 0.76%, a viability, T/C [35] of 1.44% and a viability, T/C [36] of 0.94%.
`O=c1[nH]cc(F)c(=O)[nH]1` + Cc1[nH]c2ccc(F)cc2c1-c1nc2c3cccnc3c3ncccc3c2[nH]1 was tested, and the IC50 (second compound 0.0316 µM) was 159 nM, the IC50 (second compound 0.1 µM) was 186 nM and the IC50 (second compound 0.316 µM) was 181 nM. The IC50 (second compound 1 µM) was 164 nM, the IC50 (second compound 3.16 µM) was 150 nM and the IC50 (second compound 10 µM) was 93.4 nM. It also gave a viability, T/C [1] of 111%, a viability, T/C [2] of 74.5% and a viability, T/C [3] of 13.6%. For the same compound, the viability, T/C [4] was 5.76%, the viability, T/C [5] was 6.03% and the viability, T/C [6] was 6.51%. For the same compound, the viability, T/C [7] was 112%, the viability, T/C [8] was 92.4% and the viability, T/C [9] was 13.9%. For the same compound, the viability, T/C [10] was 6.57%, the viability, T/C [11] was 5.93% and the viability, T/C [12] was 6.8%. For the same compound, the viability, T/C [13] was 95.9%, the viability, T/C [14] was 90.5% and the viability, T/C [15] was 12.1%. It also gave a viability, T/C [16] of 7.51%, a viability, T/C [17] of 5.56% and a viability, T/C [18] of 6.35%. For the same compound, the viability, T/C [19] was 96.3%, the viability, T/C [20] was 76.5% and the viability, T/C [21] was 14.8%. The viability, T/C [22] was 7.21%, the viability, T/C [23] was 6.11% and the viability, T/C [24] was 6.82%. The viability, T/C [25] was 110%, the viability, T/C [26] was 68.8% and the viability, T/C [27] was 15.2%. It also gave a viability, T/C [28] of 9.36%, a viability, T/C [29] of 7.92% and a viability, T/C [30] of 9.72%. For the same compound, the viability, T/C [31] was 114%, the viability, T/C [32] was 46% and the viability, T/C [33] was 14.6%. For the same compound, the viability, T/C [34] was 9.18%, the viability, T/C [35] was 6.61% and the viability, T/C [36] was 7.61%.

— PubChem BioAssay AID2060488 (Molecular Pharmacology Branch, DTP, NCI, 2025)
